Target: T1, KDM4B (Homo sapiens, UniProt O94953)
T1 sequence (O94953 1-500): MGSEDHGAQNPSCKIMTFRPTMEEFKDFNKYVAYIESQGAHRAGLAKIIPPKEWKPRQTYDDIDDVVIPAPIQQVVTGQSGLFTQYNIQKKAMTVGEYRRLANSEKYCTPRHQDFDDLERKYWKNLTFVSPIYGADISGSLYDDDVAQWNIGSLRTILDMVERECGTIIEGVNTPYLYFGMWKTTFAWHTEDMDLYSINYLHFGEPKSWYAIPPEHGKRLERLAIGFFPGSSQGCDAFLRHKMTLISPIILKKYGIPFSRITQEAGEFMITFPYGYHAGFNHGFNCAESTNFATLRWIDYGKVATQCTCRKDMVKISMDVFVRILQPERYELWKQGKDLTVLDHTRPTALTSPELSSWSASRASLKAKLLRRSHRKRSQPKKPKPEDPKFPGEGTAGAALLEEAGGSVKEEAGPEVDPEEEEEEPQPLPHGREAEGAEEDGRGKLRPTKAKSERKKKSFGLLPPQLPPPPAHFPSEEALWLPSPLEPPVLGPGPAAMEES
Test: 1H-15N TROSY-HSQC NMR shifts
Type: biochemical

SMILES: O=C(NCCCc1ccccc1)c1cccc(-c2cc(O)c3ncccc3c2)c1 [B3, NCGC00244536]
- IC50: ~10 nM

From PMC4578295 (Chemistry & biology, 2015)
